According to the supplement of paper PMC13207355:

Key:
Settings in all cases: exposure time: 72 h
E13 [1] = patient-derived glioblastoma stem cells of classical subtype; test: surviving fraction (nuclei count normalised to DMSO); higher = more cells surviving (less toxic)
E21 [2] = patient-derived glioblastoma stem cells of mesenchymal subtype; test: as above
E28 [3] = patient-derived glioblastoma stem cells of classical subtype; test: as above
E31 [4] = patient-derived glioblastoma stem cells of proneural subtype; test: as above
E34 [5] = patient-derived glioblastoma stem cells of proneural subtype; test: as above
E57 [6] = patient-derived glioblastoma stem cells of mesenchymal subtype; test: as above
FT3469 [7] = normal neural stem cell line; test: as above
E13 [8] = test: phenotypic distance (Euclidean, principal components) from DMSO controls (arbitrary units); higher = stronger morphological change
E21 [9] = test: as above
E28 [10] = test: as above
E31 [11] = test: as above
E34 [12] = test: as above
E57 [13] = test: as above
FT3469 [14] = test: as above
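For phenotypic distance (Euclidean, principal components) from DMSO controls in this document: cell Painting imaging in 384-well plates, CellProfiler features reduced to at least 20 principal components, Euclidean distance versus same-plate DMSO vehicle wells (0.1% v/v), median over six images per well.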
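For surviving fraction (nuclei count normalised to DMSO) in this document: nuclei counted by high-content imaging of Hoechst-stained cells in laminin-coated 384-well plates, relative to 0.1% DMSO vehicle wells, with staurosporine as cell-death control.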

c1ccc2c(c1)[I+]c1ccccc1-2 [Diphenyleneiodonium chloride]
Settings	phenotypic distance	surviving fraction
E13 [1], 4.1 nM	–	0.616
E13 [1], 12.3 nM	–	0.605
E13 [1], 37 nM	–	0.464
E13 [1], 111.1 nM	–	0.47
E13 [1], 333.3 nM	–	0.417
E13 [1], 1000 nM	–	0.331
E13 [1], 3000 nM	–	0.251
E13 [8], 4.1 nM	1.34	–
E13 [8], 12.3 nM	4.24	–
E13 [8], 37 nM	1.9	–
E13 [8], 111.1 nM	2.21	–
E13 [8], 333.3 nM	3.13	–
E13 [8], 1000 nM	5.26	–
E13 [8], 3000 nM	5.24	–
E21 [2], 4.1 nM	–	0.827
E21 [2], 12.3 nM	–	0.767
E21 [2], 37 nM	–	0.672
E21 [2], 111.1 nM	–	0.559
E21 [2], 333.3 nM	–	0.548
E21 [2], 1000 nM	–	0.525
E21 [2], 3000 nM	–	0.401
E21 [9], 4.1 nM	2.03	–
E21 [9], 12.3 nM	1.85	–
E21 [9], 37 nM	1.83	–
E21 [9], 111.1 nM	3.51	–
E21 [9], 333.3 nM	2.93	–
E21 [9], 1000 nM	3.58	–
E21 [9], 3000 nM	4.29	–
E28 [3], 4.1 nM	–	0.654
E28 [3], 12.3 nM	–	0.916
E28 [3], 37 nM	–	0.853
E28 [3], 111.1 nM	–	0.524
E28 [3], 333.3 nM	–	0.392
E28 [3], 1000 nM	–	0.319
E28 [3], 3000 nM	–	0.212
E28 [10], 4.1 nM	0.894	–
E28 [10], 12.3 nM	0.602	–
E28 [10], 37 nM	0.781	–
E28 [10], 111.1 nM	1.28	–
E28 [10], 333.3 nM	2.53	–
E28 [10], 1000 nM	2.98	–
E28 [10], 3000 nM	3.16	–
E31 [4], 4.1 nM	–	0.886
E31 [4], 12.3 nM	–	0.765
E31 [4], 37 nM	–	0.518
E31 [4], 111.1 nM	–	0.31
E31 [4], 333.3 nM	–	0.371
E31 [4], 1000 nM	–	0.338
E31 [4], 3000 nM	–	0.216
E31 [11], 4.1 nM	1.12	–
E31 [11], 12.3 nM	1.08	–
E31 [11], 37 nM	2.15	–
E31 [11], 111.1 nM	2.63	–
E31 [11], 333.3 nM	2.78	–
E31 [11], 1000 nM	3.14	–
E31 [11], 3000 nM	4.34	–
E34 [5], 4.1 nM	–	0.75
E34 [5], 12.3 nM	–	0.634
E34 [5], 37 nM	–	0.521
E34 [5], 111.1 nM	–	0.586
E34 [5], 333.3 nM	–	0.555
E34 [5], 1000 nM	–	0.519
E34 [5], 3000 nM	–	0.411
E34 [12], 4.1 nM	1.01	–
E34 [12], 12.3 nM	1.55	–
E34 [12], 37 nM	1.65	–
E34 [12], 111.1 nM	2.16	–
E34 [12], 333.3 nM	1.7	–
E34 [12], 1000 nM	3.29	–
E34 [12], 3000 nM	4.68	–
E57 [6], 4.1 nM	–	0.876
E57 [6], 12.3 nM	–	0.876
E57 [6], 37 nM	–	0.767
E57 [6], 111.1 nM	–	0.426
E57 [6], 333.3 nM	–	0.291
E57 [6], 1000 nM	–	0.266
E57 [6], 3000 nM	–	0.21
E57 [13], 4.1 nM	1.31	–
E57 [13], 12.3 nM	1.36	–
E57 [13], 37 nM	1.73	–
E57 [13], 111.1 nM	4.12	–
E57 [13], 333.3 nM	6.27	–
E57 [13], 1000 nM	6.54	–
E57 [13], 3000 nM	7.74	–
FT3469 [7], 4.1 nM	–	0.771
FT3469 [7], 12.3 nM	–	0.707
FT3469 [7], 37 nM	–	0.742
FT3469 [7], 111.1 nM	–	0.753
FT3469 [7], 333.3 nM	–	0.59
FT3469 [7], 1000 nM	–	0.473
FT3469 [7], 3000 nM	–	0.449
FT3469 [14], 4.1 nM	1.56	–
FT3469 [14], 12.3 nM	1.64	–
FT3469 [14], 37 nM	1.95	–
FT3469 [14], 111.1 nM	1.56	–
FT3469 [14], 333.3 nM	2.13	–
FT3469 [14], 1000 nM	2.73	–
FT3469 [14], 3000 nM	2.8	–

COc1cc([C@@H]2c3cc4c(cc3[C@H](O)[C@H]3COC(=O)[C@H]23)OCO4)cc(OC)c1OC [Podophyllotoxin]
Settings	phenotypic distance	surviving fraction
E13 [1], 4.1 nM	–	0.153
E13 [1], 12.3 nM	–	0.182
E13 [1], 37 nM	–	0.139
E13 [1], 111.1 nM	–	0.182
E13 [1], 333.3 nM	–	0.123
E13 [1], 1000 nM	–	0.197
E13 [1], 3000 nM	–	0.112
E13 [8], 4.1 nM	6.81	–
E13 [8], 12.3 nM	7.76	–
E13 [8], 37 nM	6.3	–
E13 [8], 111.1 nM	8.14	–
E13 [8], 333.3 nM	7.56	–
E13 [8], 1000 nM	9.37	–
E13 [8], 3000 nM	9.25	–
E21 [2], 4.1 nM	–	0.115
E21 [2], 12.3 nM	–	0.113
E21 [2], 37 nM	–	0.0947
E21 [2], 111.1 nM	–	0.0585
E21 [2], 333.3 nM	–	0.0628
E21 [2], 1000 nM	–	0.0607
E21 [2], 3000 nM	–	0.0362
E21 [9], 4.1 nM	8.85	–
E21 [9], 12.3 nM	8.76	–
E21 [9], 37 nM	8.54	–
E21 [9], 111.1 nM	8.65	–
E21 [9], 333.3 nM	8.16	–
E21 [9], 1000 nM	8.89	–
E21 [9], 3000 nM	8.66	–
E28 [3], 4.1 nM	–	0.354
E28 [3], 12.3 nM	–	0.369
E28 [3], 37 nM	–	0.324
E28 [3], 111.1 nM	–	0.265
E28 [3], 333.3 nM	–	0.22
E28 [3], 1000 nM	–	0.209
E28 [3], 3000 nM	–	0.198
E28 [10], 4.1 nM	3.02	–
E28 [10], 12.3 nM	3.22	–
E28 [10], 37 nM	4.05	–
E28 [10], 111.1 nM	5.71	–
E28 [10], 333.3 nM	5.89	–
E28 [10], 1000 nM	6.42	–
E28 [10], 3000 nM	6.86	–
E31 [4], 4.1 nM	–	0.0505
E31 [4], 12.3 nM	–	0.0728
E31 [4], 37 nM	–	0.0565
E31 [4], 111.1 nM	–	0.0446
E31 [4], 333.3 nM	–	0.0282
E31 [4], 1000 nM	–	0.0371
E31 [4], 3000 nM	–	0.0297
E31 [11], 4.1 nM	5.03	–
E31 [11], 12.3 nM	5.75	–
E31 [11], 37 nM	7.75	–
E31 [11], 111.1 nM	13.3	–
E31 [11], 333.3 nM	11.2	–
E31 [11], 1000 nM	14.3	–
E31 [11], 3000 nM	13.5	–
E34 [5], 4.1 nM	–	0.471
E34 [5], 12.3 nM	–	0.378
E34 [5], 37 nM	–	0.31
E34 [5], 111.1 nM	–	0.339
E34 [5], 333.3 nM	–	0.32
E34 [5], 1000 nM	–	0.329
E34 [5], 3000 nM	–	0.249
E34 [12], 4.1 nM	4.47	–
E34 [12], 12.3 nM	4.98	–
E34 [12], 37 nM	6.57	–
E34 [12], 111.1 nM	8.02	–
E34 [12], 333.3 nM	7.55	–
E34 [12], 1000 nM	9.53	–
E34 [12], 3000 nM	9.18	–
E57 [6], 4.1 nM	–	0.0665
E57 [6], 12.3 nM	–	0.0974
E57 [6], 37 nM	–	0.0586
E57 [6], 111.1 nM	–	0.0625
E57 [6], 333.3 nM	–	0.089
E57 [6], 1000 nM	–	0.0755
E57 [6], 3000 nM	–	0.0653
E57 [13], 4.1 nM	6.96	–
E57 [13], 12.3 nM	6.65	–
E57 [13], 37 nM	7.38	–
E57 [13], 111.1 nM	5.64	–
E57 [13], 333.3 nM	6.77	–
E57 [13], 1000 nM	7.07	–
E57 [13], 3000 nM	6.6	–
FT3469 [7], 4.1 nM	–	0.517
FT3469 [7], 12.3 nM	–	0.541
FT3469 [7], 37 nM	–	0.375
FT3469 [7], 111.1 nM	–	0.377
FT3469 [7], 333.3 nM	–	0.433
FT3469 [7], 1000 nM	–	0.416
FT3469 [7], 3000 nM	–	0.379
FT3469 [14], 4.1 nM	4.23	–
FT3469 [14], 12.3 nM	5.67	–
FT3469 [14], 37 nM	4.76	–
FT3469 [14], 111.1 nM	6.26	–
FT3469 [14], 333.3 nM	5.78	–
FT3469 [14], 1000 nM	5.4	–
FT3469 [14], 3000 nM	6.63	–
